US8071551B2, “Methods and compositions for treating diabetes” (BioHolding, Inc., priority 1999, dated 2011)

What was measured:
[1] = system: RCG Neuron (rat cerebral granule) cells; experiment: Apoptosis induced by depletion of serum in RCG neuron cells (Hoechst 33258 staining, fluorescence microscope); assay type: cell-based; details: BME without serum, 10 hours, Hoechst dye 33258
Procedure: RCG neuronal cells are seeded into cell culture dishes in 400 μl cell culture medium (Eagle's basal medium, BME) containing 10% (v/v) FBS. At day two the now conditioned medium is removed and the cells are treated for 10 hours as follows:
Then the medium is replaced with 4% (w/v) paraformaldehyde, incubated for 15 minutes at room temperature, and the cells stained with Hoechst dye 33258 (8 μg/ml) for 15 minutes at room temperature. The apoptosis in the cells is evaluated using a fluorescence microscope by an evaluator blinded to the method of treatment.

[2] = system: Primary rat brain granule cells; experiment: Apoptosis associated with serum depletion in primary rat brain granule cells; assay type: cell-based; details: α1-antitrypsin 3.0 mg/ml, one hour pretreatment, medium devoid of fetal bovine serum, 24 hours of culture
Procedure: Primary rat brain granule cells are pretreated for one hour in the absence or presence of α1-antitrypsin (3.0 mg/ml), followed by replacement of the cell culture medium with either control medium containing 10% (vol/vol) fetal bovine serum, medium devoid of fetal bovine serum, or medium devoid of fetal bovine serum but containing α1-antitrypsin.

Compound: Cc1cccc(Cc2nnc(C(=O)[C@@H](NC(=O)[C@@H]3CCCN3C(=O)[C@@H](NC(=O)OCc3ccccc3)C(C)C)C(C)C)o2)c1 [CE-2072, benzyloxcarbonyl-L-valyl-N-[1-(2-[5-(3-methylbenzyl)-1,3,4-oxadiazolyl]carbonyl)-2-(S)-Methylpropyl]-L-prolinamide, reference compound]
- apoptosis induced by depletion of serum ([1]; CE-2072 60 μM in DMSO): blocked

Compound: lyophilized α1-antitrypsin: lyophilized preparation of the serine protease inhibitor α1-antitrypsin
- apoptosis induced by depletion of serum ([1]; lyophilized AAT 50 μM): blocked

Compound: α1-Antitrypsin: serine protease inhibitor α1-antitrypsin
- apoptosis associated with serum depletion [2]: completely reverses
